Data on eleven molecules can be found in paper PMC9391460, “Biophysical and pharmacokinetic characterization of a small-molecule inhibitor of RUNX1/ETO tetramerization with anti-leukemic effects” (Scientific Reports, 2022).

One data set in a line: Hepatocyte stability. Format: in vitro ADME. Conditions: mouse hepatocytes.
Data set [1] is described as follows: Kinetic solubility in PBS. In kind it is physicochemical. The conditions noted are these: kinetic from dmso stock.
Description: in a cut-off concentration of 200 µM and a final solvent content of 1% DMSO. The test
solutions (triplicates) were put on a filter plate and were shaken protected from light at 300 rpm
at room temperature for 1.5 hours, followed by centrifugation at 500 x g for 3 minutes. 200 µl
of the filtrate were mixed with 100 µl ACN containing the ISTD as described in Sample
The nature of data set [2]: pKa value determination by 1H NMR. Format: physicochemical. On the procedure: Sodium 2,2-dimethyl-2-silapentane-5-sulfonate (DSS) was used for chemical shift referencing and calibrated to a zero ppm value in each case. […] Then the pKa was calculated by using the chemical shifts of the protonated and unprotonated forms at the respective pH and fitting to the Henderson-Hasselbalch equation[25] (Fig. 6B).
1D ^1H-NMR experiments were performed using 256 scans for each sample. ^1H chemical shift values were extracted for the reporter protons using TopSpin 3.2 (Bruker BioSpin). The pKa was calculated using the chemical shifts of the protonated and unprotonated forms and their corresponding mole fraction values applying the Henderson-Hasselbalch equation as explained by Gift et al.[25]. The data were processed and plotted with the Origin software (OriginLab Corporation, USA).

The nature of data set [3]: Chemical stability in PBS. Conditions: pH 7.4, 0–4 h. Format: physicochemical. On the procedure: (§1) For plasma stability assay, working solutions of the test and reference item were diluted f r o m the stock solutions in the appropriate solvent (Table S3) to reach working solutions of 50-fold […]
(§2) and propantheline (reference item for low plasma stability) were tested at a final concentration of 10 µM. The final solvent content in the test item incubations was 0.5% DMSO, while in the propantheline incubations, no organic solvent was added.
(§3) For chemical stability assay, working solutions of the test and reference items were diluted from the stock solutions in the appropriate solvent (Table S3) to reach working solutions of 50- […]
(§4) item and Omeprazole (reference item for low chemical stability) were tested at a final concentration of 10 µM. The final solvent content in the test item incubations was 0.5% DMSO.
(§5) For the hepatic stability assay, working solutions of the test and reference items were diluted from the stock solutions in the appropriate solvent (Table S3) to reach working solutions of a 200-fold higher strength than the intended final concentrations. In a second step, working solutions were further diluted in incubation medium to reach 10-fold concentrated starting

The nature of another data set: Plasma stability. In kind it is in vitro ADME. Conditions: mouse plasma, 0–240 min, 37 °C. On the procedure:
as §1, §2, §3, §4, §5

The conditions of data set [4]: Peff in cm sec-1 from PAMPA assays; ref Bennion, Be [13]; cited from earlier work. On the technique in general: In PAMPA a lipid-coated filter parts donor from acceptor wells.
Another data set deals with T1, NHR2 (Homo sapiens, UniProt Q06455).
T1 construct: The N-terminal residues from Q485 to D495, T519, and the C-terminal residues from Y544 to K552; 6His (N, cleaved yes); SUMO (N, cleaved yes); made in house; host or cells: E. coli Rosetta (DE3)pLysS
T1 sequence (Q06455 337-404): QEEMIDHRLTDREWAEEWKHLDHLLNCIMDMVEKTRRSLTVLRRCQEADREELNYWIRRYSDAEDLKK
Put plainly: Isothermal titration calorimetry (ITC) of HEB fragment with NHR2. Conditions: 25°C, one-site binding model. On the procedure: The NHR2 domain was overexpressed and purified, and the resulting material yielded homogeneous, monodisperse species in solution. The sample was homogenous as analyzed by size exclusion chromatography (SEC) (Fig. 2A), SDS-PAGE (Fig. S1), and dynamic light scattering (DLS) (Fig. S3). The oligomeric state of purified NHR2 was assessed by analytical ultracentrifugation (AUC) (Fig. S4). The sedimentation profiles of NHR2 show a single major species with a sedimentation coefficient (S value) of 3.07, which corresponds to the molecular weight of 37.3 kDa. This value is in agreement with the calculated molecular weight of an NHR2 tetramer of 34.2 kDa. […] The weight percent contribution of the tetramer in 35 µM of NHR2 is 94% as obtained by integration of the continuous sedimentation coefficient distribution function. To check the function of the purified NHR2, we performed isothermal titration calorimetry (ITC) with the HEB fragment of E proteins (HEB (176–200)).
Figure S5. NHR2 interaction with E proteins (HEB (176-200)) by isothermal titration calorimetry (ITC). Titration of
600 μM HEB (176-200) peptide into a 53 μM NHR2 solution and resulting heat change are shown in the upper panel. The
ITC measurements were performed at 25°C using a MicroCal ITC200 (Malvern Instruments Ltd., United Kingdom)
calorimeter. Buffer conditions were 50 mM sodium phosphate, 50 mM sodium chloride pH 8. […]
(In general: ITC needs no label: the signal is the heat of the interaction.)

Another data set has as its target T2, HEB 176-200 (Homo sapiens, UniProt Q99081).
T2 chain: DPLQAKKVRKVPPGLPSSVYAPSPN
Description: ITC.

The data set “MST” deals with the molecule itself. Description: MST.

Read-outs that look alike come from different tables or passages of the source.

Description for Hepatocyte stability: Working solutions of the test and reference items were diluted from the stock solutions in the
incubation medium to reach 10-fold concentrated starting solutions. The final test
concentrations were 5 µM with a solvent content of 0.5% DMSO or 1% ACN in all test item
and reference item incubations, respectively. 7.44 compound was dissolved 20 mM in DMSO
Primary hepatocytes from CD-1 mice (pooled, male) were thawed
according to the instructions of the manufacturer. The incubation samples were composed of
0.2 x 10^6 cells/well in 225 µL incubation medium and 25 µL test item solution (50 µM in
incubation medium), resulting in a final start concentration of 5 µM. Samples were taken from
the suspension cultures after 0, 15, 30, 60, and 120 minutes of incubation and processed for LC-
MS analysis as described in Sample preparation section.
Positive control incubations were performed using 7-ethoxycoumarin as substrate. Metabolic
turnover rates were measured at 0 and 120 minutes of incubation. Aliquotes were taken from
the incubations for sample preparation and analysis. Hepatocyte enzyme activity was assessed
in terms of 7-ethoxycoumarin turnover, i.e., loss of 7-ethoxycoumarin.
Negative controls were performed to observe non-metabolic degradation processes; i.e. test
Negative control incubations were performed
in line with all experiments using incubation medium with test and reference item in the absence
of hepatocytes. Samples were taken from the incubations at 0 and 120 minutes and processed
as described below (in Sample preparation section).

One may read the hepatocyte CLint as the rate of metabolic loss divided by the concentration. A word on the half-life: it is the time in which the quantity being followed falls by half. A word on the solubility (kinetic): it is solubility judged after dilution from a stock solution rather than from solid. On to `O=C(CC(C(=O)O)c1ccc2c(c1)OCO2)c1ccc2c(c1)OCO2` (stereo not drawn) [7.44], for which, in the data set “Hepatocyte stability” (male, CD-1, primary hepatocytes (pooled, suspension), read-out: Hepatocyte stability, intrinsic clearance rate (CLint)), the intrinsic metabolic clearance (hepatocyte CLint) at 5 µM turned out to be 2.5 µL/min/1e6 cells. Also, in “Hepatocyte stability” (male, CD-1, primary hepatocytes (pooled, suspension), read-out: half-life time), the half-life at 5 µM was greater than 2 h. Moreover, the compound remaining in the data set “Hepatocyte stability” (after 120 min) stood at 73.8%. Also, the solubility (kinetic) at […] in data set [1] (99% PBS, 1% DMSO, pH 7.4, aqueous buffer) was 177 ± 8 µM; in data set [1] (PBS with 1% DMSO, aqueous buffer, PBS, pH 7.4, read-out: Kinetic solubility), 60 µg/mL. Also, the pKa in [2] (sodium phosphate buffer with NaCl and DMSO-d6, reporter proton H2, read-out: pKa of the carboxylic group) is 3.99 ± 0.01; in [2] (sodium phosphate buffer with NaCl and DMSO-d6, reporter proton H3, read-out: pKa of the carboxylic group), 3.93 ± 0.01; in [2] (sodium phosphate buffer with NaCl and DMSO-d6, summary value, read-out: pKa), roughly 3.9. In data set [3], the “Chemical stability in PBS” value is given as “No degradation”. Further, the Plasma stability entry in the data set “Plasma stability” is “No degradation”.

With `NC(=O)c1cc[n+](COC[n+]2ccccc2/C=N/O)cc1` [asoxime (HI-6), asoxime], in [4], the “log Peff/PAMPA P0-1” value was -11.16.

On to `CN(C)CCCN1c2ccccc2Sc2ccc(Cl)cc21` [chlorpromazine], for which the “log Peff/PAMPA P0-1” value in data set [4] is recorded as -5.26.

On to `O/N=C/c1cc[n+](C[n+]2ccc(/C=N/O)cc2)cc1` [methoxime (MMB4), methoxime], for which the “log Peff/PAMPA P0-1” value in data set [4] was -9.25.

For `C[n+]1ccccc1/C=N/O` [pralidoxime (P2-PAM), pralidoxime], the “log Peff/PAMPA P0-1” value in [4] is listed as -7.52.

As to `CC(=O)[C@H]1CC[C@H]2[C@@H]3CCC4=CC(=O)CC[C@]4(C)[C@H]3CC[C@]12C` [progesterone], the “log Peff/PAMPA P0-1” value in data set [4] is reported as -4.94.

Consider `CN(C)CCCN1c2ccccc2Sc2ccccc21` [promazine], for which the “log Peff/PAMPA P0-1” value in data set [4] is recorded as -4.88.

For the molecule `Cn1c(=O)c2[nH]cnc2n(C)c1=O` [theophylline], the “log Peff/PAMPA P0-1” value in data set [4] was -5.91.

One may read the Kd as the equilibrium constant for the complex coming apart. Turning to “HEB (176–200): HEB fragment of E proteins, known to interact with the NHR2 domain (DPLQAKKVRKVPPGLPSSVYAPSPN; UniProt Q99081 176-200, looked up, fragment)”, the “binding enthalpy ΔH” value with NHR2 is -15 ± 6 kcal/mol. Besides, the equilibrium dissociation constant (Kd) with NHR2 (read-out: dissociation constant KD) came out at 30 ± 4 µM.

B1: NHR2 domain of RUNX1/ETO 485-552 (protein)
chain: KMERTVAEAKRQAAEDALAVINQQEDSSESCWNCGRKASETCSGCNTARYCGSFCQHKDWEKHHHICG
On to B1, for which, in the data set with HEB 176-200, the Kd is 30 µM.

B2: NHR2 domain of RUNX1/ETO (dimer) 485-552 (protein)
chain: B1 chain
In turn, B2 registered a dissociation constant Kd in the data set “MST” of 1.6 µM.
